Data from ChEMBL document CHEMBL1944601, “N-(4-Substituted-benzoyl)-N'-(β-d-glucopyranosyl)ureas as inhibitors of glycogen phosphorylase: Synthesis and evaluation by kinetic, crystallographic, and molecular modelling methods” (Bioorg Med Chem, 2012).

biological target: T1, Glycogen phosphorylase, muscle form (Oryctolagus cuniculus, UniProt P00489)
T1 sequence (P00489 whole entry): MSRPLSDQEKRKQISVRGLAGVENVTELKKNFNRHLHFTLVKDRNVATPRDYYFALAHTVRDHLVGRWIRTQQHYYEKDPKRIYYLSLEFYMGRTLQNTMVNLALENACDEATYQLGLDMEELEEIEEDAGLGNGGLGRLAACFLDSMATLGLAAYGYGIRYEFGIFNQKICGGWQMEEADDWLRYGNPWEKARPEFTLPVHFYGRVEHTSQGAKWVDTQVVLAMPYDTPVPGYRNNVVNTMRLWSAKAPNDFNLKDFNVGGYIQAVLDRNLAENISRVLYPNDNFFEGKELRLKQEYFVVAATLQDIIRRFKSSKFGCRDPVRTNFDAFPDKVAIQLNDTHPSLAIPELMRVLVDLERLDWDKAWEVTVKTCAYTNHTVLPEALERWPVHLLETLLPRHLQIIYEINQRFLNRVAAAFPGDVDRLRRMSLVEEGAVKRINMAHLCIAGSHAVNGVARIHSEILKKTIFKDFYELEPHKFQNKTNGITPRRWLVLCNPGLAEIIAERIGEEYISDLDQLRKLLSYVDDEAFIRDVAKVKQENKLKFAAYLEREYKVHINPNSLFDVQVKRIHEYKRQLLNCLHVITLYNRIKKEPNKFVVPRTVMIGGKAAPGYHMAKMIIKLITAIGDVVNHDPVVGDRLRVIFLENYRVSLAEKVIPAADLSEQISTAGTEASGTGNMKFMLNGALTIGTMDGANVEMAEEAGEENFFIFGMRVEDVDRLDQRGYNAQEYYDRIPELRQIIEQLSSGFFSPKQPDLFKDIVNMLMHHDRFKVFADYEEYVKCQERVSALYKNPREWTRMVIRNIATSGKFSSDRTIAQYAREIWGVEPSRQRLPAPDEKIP
Description: (§1) Inhibition of rabbit muscle glycogen phosphorylase b assessed as inorganic phosphate release at pH 6.8

| SMILES | Ki |
| --- | --- |
| O=C(N[C@H]1O[C@H](CO)[C@@H](O)[C@H](O)[C@H]1O)C(F)(F)F | Not Active |

biological target: T1, Glycogen phosphorylase, muscle form; remark: another data set of the same source
Description: as §1

| SMILES | Ki |
| --- | --- |
| [N-]=[N+]=NCC(=O)N[C@@H]1O[C@H](CO)[C@@H](O)[C@H](O)[C@H]1O | 49 µM |
| O=C(NC(=O)c1ccc(Cl)cc1)N[C@@H]1O[C@H](CO)[C@@H](O)[C@H](O)[C@H]1O | 4.4 µM |
| O=C(NC(=O)c1ccc(-c2ccccc2)cc1)N[C@@H]1O[C@H](CO)[C@@H](O)[C@H](O)[C@H]1O | 3.7 µM |
| O=C(N[C@@H]1O[C@H](CO)[C@@H](O)[C@H](O)[C@H]1O)C(F)(F)F | 75 µM |
| COC(=O)N[C@@H]1O[C@H](CO)[C@@H](O)[C@H](O)[C@H]1O | 210 µM |
| O=C(O)CCC(=O)N[C@@H]1O[C@H](CO)[C@@H](O)[C@H](O)[C@H]1O | 20 µM |
| COc1ccc(C(=O)NC(=O)N[C@@H]2O[C@H](CO)[C@@H](O)[C@H](O)[C@H]2O)cc1 | 3.2 µM |
| COC(=O)c1ccc(C(=O)NC(=O)N[C@@H]2O[C@H](CO)[C@@H](O)[C@H](O)[C@H]2O)cc1 | 4 µM |
| O=C(NC(=O)c1ccc(C(=O)OCc2ccccc2)cc1)N[C@@H]1O[C@H](CO)[C@@H](O)[C@H](O)[C@H]1O | 150 µM |
| O=C(NC(=O)c1ccc(C(=O)O)cc1)N[C@@H]1O[C@H](CO)[C@@H](O)[C@H](O)[C@H]1O | 85 µM |
| CC(=O)NC(=O)N[C@@H]1O[C@H](CO)[C@@H](O)[C@H](O)[C@H]1O | 370 µM |
| NC(=O)NC1O[C@H](CO)[C@@H](O)[C@H](O)[C@H]1O (single isomer, unassigned) | 140 µM |
